The subject of this experiment is participants with SSc-RP. Put plainly: Average severity of weekly RP attacks (VAS 0-10). It counts as in vivo, human. Particulars: Tadalafil 5 mg; for Average Severity of Weekly Symptomatic RP Attacks, Change from Baseline, Mean / Average Severity of Weekly Symptomatic RP Attacks, Change from Baseline, Median / Average Severity of Weekly Symptomatic RP Attacks, Percent Change from Baseline, Mean / Average Severity of Weekly Symptomatic RP Attacks, Percent Change from Baseline, Median: 2nd Baseline RCS subgroup, ITT Part A, last 7 days of dosing period. An excerpt:
The absolute change in average severity of weekly RP attacks (VAS 0-10 cm scale) from baseline to the end of each Dosing Period was and will be a secondary outcome variable. The sponsor-developed participant-informed diary will be used to record data. Average severity of weekly RP attacks is defined as the total severity scores of RP attacks divided by total number of RP attacks within the last 7 days of each dosing period. Total severity scores of RP attacks during the last 7 days of screening period divided by the total number of RP attacks will be used as baseline for the analysis of all periods. The variable will be calculated similar to frequency data as before.

[1] abbreviates: all attacks, by Baseline RCS: second subgroup of Table C-7, ITT Part A.

The text below walks through data of patent US20240358692A1, “TREATMENT OF SCLERODERMA” (Aisa Pharma, Inc., priority 2023, published 2024).

Consider `CN1CC(=O)N2[C@H](c3ccc4c(c3)OCO4)c3[nH]c4ccccc4c3C[C@@H]2C1=O` [Tadalafil], for which the “Average Severity of Weekly Symptomatic RP Attacks, Change from Baseline, Mean” value is recorded as −0.60; the “Average Severity of Weekly Symptomatic RP Attacks, Change from Baseline, Median” value is on record as −0.60; the “Average Severity of Weekly Symptomatic RP Attacks, Percent Change from Baseline, Mean” value was −10.43%; the “Average Severity of Weekly Symptomatic RP Attacks, Percent Change from Baseline, Median” value is listed as −10.43%. Besides, under “Excluding Outliers”, the “Average Severity of Weekly Symptomatic RP Attacks, Change from Baseline, Mean” value was −1.32; the “Average Severity of Weekly Symptomatic RP Attacks, Change from Baseline, Median” value is −1.32; the “Average Severity of Weekly Symptomatic RP Attacks, Percent Change from Baseline, Mean” value is reported as −22.01%; the “Average Severity of Weekly Symptomatic RP Attacks, Percent Change from Baseline, Median” value was −22.01%. Under setting [1], the “Average Severity (0-10) of weekly RP attacks, Mean” value stood at 7.02; the “Average Severity (0-10) of weekly RP attacks, Median” value amounted to 7.02; the “Average severity of weekly RP attacks, Change from Baseline, Mean” value is listed as −0.47; the “Average severity of weekly RP attacks, Change from Baseline, Median” value is recorded as −0.47. Also, under setting [1], the “Average severity of weekly RP attacks, Percent Change from Baseline, Mean” value is given as −8.97% and the “Average severity of weekly RP attacks, Percent Change from Baseline, Median” value is listed as −8.97%.
